Assay results as given in US20260022142A1, “MACROCYCLIC IMMUNOMODULATORS” (Bristol-Myers Squibb Company, priority 2022, published 2026).
Bridge positions count the residues as written; N and C are the ends. Square brackets hold non-standard residues; d marks the D form. Peptide text beside a SMILES is read from it. * marks the point of attachment. ξ: configuration not given here. Phe(3-CF3) = N[C@@H](Cc1cccc(C(F)(F)F)c1)C(=O)O; Phe(4-COOH) = N[C@@H](Cc1ccc(C(=O)O)cc1)C(=O)O; Bip = N[C@@H](Cc1ccc(-c2ccccc2)cc1)C(=O)O; NH(CH2)14COOH = O=C(O)CCCCCCCCCCCCCCN*; Phe(3-Me) = Cc1cccc(C[C@H](N)C(=O)O)c1; NH(CH2)12COOH = O=C(O)CCCCCCCCCCCCN*; Val(3-OH) = CC(C)(O)[C@H](N)C(=O)O; hArg = N=C(N)NCCCC[C@H](N)C(=O)O; Cha = N[C@@H](CC1CCCCC1)C(=O)O; Cit = NC(=O)NCCC[C@H](N)C(=O)O; Thr(3ξ) = CC(O)[C@H](N)C(=O)O; PEG4 = NCCOCCOCCOCCOCCC(=O)O; Carboxymethyl = O=C(O)C*; Orn = NCCC[C@H](N)C(=O)O; Dab = NCC[C@H](N)C(=O)O; Nva = CCC[C@H](N)C(=O)O; Dap = NC[C@H](N)C(=O)O; AEEA = NCCOCCOCC(=O)O

Target: T1, PD-1/PD-L1 interaction (PE-labeled human PD-L1-Ig binding to Jurkat cell line over-expressing human PD-1) (Homo sapiens, UniProt Q15116)
T1 construct: expressed in transfected cells; host or cells: Jurkat
T1 sequence (Q15116 25-288): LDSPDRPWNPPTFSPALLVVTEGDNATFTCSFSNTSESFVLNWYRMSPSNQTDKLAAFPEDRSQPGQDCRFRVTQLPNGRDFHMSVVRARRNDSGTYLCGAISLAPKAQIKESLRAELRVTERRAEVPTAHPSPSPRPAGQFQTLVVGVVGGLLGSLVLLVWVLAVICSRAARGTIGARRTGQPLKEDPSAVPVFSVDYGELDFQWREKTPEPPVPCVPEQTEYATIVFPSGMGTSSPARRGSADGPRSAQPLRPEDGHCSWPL
Test: Jurkat-PD-1 Cell Binding High-Content Screening Assay (CBA)
Format: cell-based
Details: Jurkat cell line over-expressing human PD-1; PE-labeled PD-L1-Ig 20 nM final; read-out: Jurkat hPD1-PDL1 IC50
Procedure, shortened: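 Human PD-L1-Ig carrying a covalent PE label on its Ig tag serves as the probe, applied at 20 nM final to compound-treated (2 h, 37° C) Jurkat-hPD-1 cells in medium with 10% fetal calf serum. After one hour, fixation and nuclear staining precede high-content image analysis.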

Which IC50 does the source give for `CCC[C@@H]1NC(=O)CSC[C@@H](C(=O)N[C@@H](CCN)C(=O)NCCOCCOCCOCCOCCC(=O)NCCCCCCCCCCCCC(=O)O)NC(=O)[C@H](Cc2c[nH]cn2)NC(=O)[C@H](C(C)(C)O)NC(=O)[C@H](CC2CCCCC2)NC(=O)[C@H](CCN)NC(=O)[C@@H](CC(C)C)NC(=O)[C@H](CCCN)NC(=O)[C@H](Cc2ccc(C(=O)O)cc2)NC(=O)[C@H](Cc2ccc(-c3ccccc3)cc2)NC(=O)[C@H](Cc2ccc(C(=O)O)cc2)NC(=O)[C@H](Cc2cccc(C(F)(F)F)c2)NC(=O)[C@H](CC(=O)O)NC(=O)[C@H](Cc2ccc(OCC(=O)O)cc2)NC1=O` [Compound 2950] ({CH2CO}-[Nva]Y(Carboxymethyl)D[Phe(3-CF3)][Phe(4-COOH)][Bip][Phe(4-COOH)][Orn][dL][Dab][Cha][Val(3-OH)]HC[Dab][PEG4]-{NH(CH2)12COOH}; thioether N-14) here?
The IC50 was 52.4 nM.

With `CC(C)C[C@H]1NC(=O)[C@H](CCCN)NC(=O)[C@H](Cc2ccc(C(=O)O)cc2)NC(=O)[C@H](Cc2ccc(-c3ccccc3)cc2)NC(=O)[C@H](Cc2ccc(C(=O)O)cc2)NC(=O)[C@H](Cc2cccc(C(F)(F)F)c2)NC(=O)[C@H](CC(=O)O)NC(=O)[C@H](Cc2ccc(OCC(=O)O)cc2)NC(=O)[C@H](C)NC(=O)CSC[C@@H](C(=O)N[C@@H](CCN)C(=O)NCCOCCOCCOCCOCCC(=O)NCCCCCCCCCCCCC(=O)O)NC(=O)[C@H](Cc2c[nH]cn2)NC(=O)[C@H](C(C)(C)O)NC(=O)[C@H](CC2CCCCC2)NC(=O)[C@H](CCN)NC1=O` [Compound 2953] ({CH2CO}-AY(Carboxymethyl)D[Phe(3-CF3)][Phe(4-COOH)][Bip][Phe(4-COOH)][Orn][dL][Dab][Cha][Val(3-OH)]HC[Dab][PEG4]-{NH(CH2)12COOH}; thioether N-14) as the compound, how does the IC50 read?
Its IC50 is 49.3 nM.

For `CC(C)C[C@H]1NC(=O)[C@H](CCCN)NC(=O)[C@H](Cc2ccc(C(=O)O)cc2)NC(=O)[C@H](Cc2ccc(-c3ccccc3)cc2)NC(=O)[C@H](Cc2ccc(C(=O)O)cc2)NC(=O)[C@H](Cc2cccc(C(F)(F)F)c2)NC(=O)[C@H](CC(=O)O)NC(=O)[C@H](Cc2ccc(OCC(=O)O)cc2)NC(=O)[C@H](C)NC(=O)CSC[C@@H](C(=O)N[C@@H](CCN)C(=O)NCCOCCOCCOCCOCCC(=O)NCCCCCCCCCCCCCCC(=O)O)NC(=O)[C@H](Cc2c[nH]cn2)NC(=O)[C@H](C(C)(C)O)NC(=O)[C@H](CC2CCCCC2)NC(=O)[C@H](CCN)NC1=O` [Compound 2954] ({CH2CO}-AY(Carboxymethyl)D[Phe(3-CF3)][Phe(4-COOH)][Bip][Phe(4-COOH)][Orn][dL][Dab][Cha][Val(3-OH)]HC[Dab][PEG4]-{NH(CH2)14COOH}; thioether N-14), which IC50 is on record?
Its IC50 is 264 nM.

Which IC50 does the source give for `CC(C)C[C@@H]1NC(=O)[C@H](Cc2c[nH]c3ccccc23)NC(=O)[C@H](CC(=O)O)NC(=O)[C@H](Cc2ccc(OCC(=O)O)cc2)NC(=O)[C@H](CCCCNC(=N)N)NC(=O)CSC[C@@H](C(=O)N[C@@H](C)C(=O)NCCOCCOCC(=O)N[C@@H](CCCCN)C(=O)NCCOCCOCC(=O)NCCCCCCCCCCCCCCC(=O)O)NC(=O)[C@H](CO)NC(=O)[C@H](C(C)C)NC(=O)[C@H](CC2CCCCC2)NC(=O)[C@H](CCN)NC(=O)[C@@H](CC(C)C)NC(=O)[C@H](CCCN)NC(=O)[C@H](C(C)C)NC(=O)[C@H](Cc2ccc(-c3ccccc3)cc2)NC1=O` [Compound 3006] ({CH2CO}-[hArg]Y(Carboxymethyl)DWL[Bip]V[Orn][dL][Dab][Cha]VSCA[AEEA]K[AEEA]-{NH(CH2)14COOH}; thioether N-14) here?
Its IC50 is 129 nM.

How did the IC50 turn out when `Cc1cccc(C[C@@H]2NC(=O)[C@H](CC(=O)O)NC(=O)[C@H](Cc3ccc(OCC(=O)O)cc3)NC(=O)[C@H](CN)NC(=O)CSC[C@@H](C(=O)N[C@@H](C)C(=O)N[C@@H](CCCCN)C(=O)NCC(=O)NCCCCCCCCCCCCCCC(=O)O)NC(=O)[C@H](C(C)O)NC(=O)[C@H](C(C)C)NC(=O)[C@H](CC3CCCCC3)NC(=O)[C@H](CCN)NC(=O)[C@@H](CC(C)C)NC(=O)[C@H](CCCN)NC(=O)[C@H](CCCNC(N)=O)NC(=O)[C@H](Cc3ccc(-c4ccccc4)cc3)NC(=O)[C@H](C(C)C)NC2=O)c1` (stereo partly drawn) [Compound 3007] ({CH2CO}-[Dap]Y(Carboxymethyl)D[Phe(3-Me)]V[Bip][Cit][Orn][dL][Dab][Cha]V[Thr(3ξ)]CAKG-{NH(CH2)14COOH}; thioether N-14) was run?
The IC50 was 180 nM.
